In US12534742B2, “Compound for regulating gene editing efficiency and application thereof” (Shanghai Institute of Organic Chemistry, Chinese Academy of …, priority 2018, dated 2026):
Values joined by “and” are separate entries in the source; they are usually repeats but may differ in a detail not shown here. Equal entries are not always repeated.

Legend:
[1] = humans; cited from earlier work
[2] = target: T1, Staphylococcus aureus Cas9 (SaCas9) (Staphylococcus aureus, UniProt J7RUA5); assay: Inhibition of plasmid-expressed SaCas9 gene editing in cell culture, T7E1 test; type: cell-based; settings: plasmid containing SaCas9; group without drug 14%
T1 construct: expressed in transfected cells; host or cells: HEK293 (method similar to 2.1)
T1 sequence (J7RUA5 whole entry): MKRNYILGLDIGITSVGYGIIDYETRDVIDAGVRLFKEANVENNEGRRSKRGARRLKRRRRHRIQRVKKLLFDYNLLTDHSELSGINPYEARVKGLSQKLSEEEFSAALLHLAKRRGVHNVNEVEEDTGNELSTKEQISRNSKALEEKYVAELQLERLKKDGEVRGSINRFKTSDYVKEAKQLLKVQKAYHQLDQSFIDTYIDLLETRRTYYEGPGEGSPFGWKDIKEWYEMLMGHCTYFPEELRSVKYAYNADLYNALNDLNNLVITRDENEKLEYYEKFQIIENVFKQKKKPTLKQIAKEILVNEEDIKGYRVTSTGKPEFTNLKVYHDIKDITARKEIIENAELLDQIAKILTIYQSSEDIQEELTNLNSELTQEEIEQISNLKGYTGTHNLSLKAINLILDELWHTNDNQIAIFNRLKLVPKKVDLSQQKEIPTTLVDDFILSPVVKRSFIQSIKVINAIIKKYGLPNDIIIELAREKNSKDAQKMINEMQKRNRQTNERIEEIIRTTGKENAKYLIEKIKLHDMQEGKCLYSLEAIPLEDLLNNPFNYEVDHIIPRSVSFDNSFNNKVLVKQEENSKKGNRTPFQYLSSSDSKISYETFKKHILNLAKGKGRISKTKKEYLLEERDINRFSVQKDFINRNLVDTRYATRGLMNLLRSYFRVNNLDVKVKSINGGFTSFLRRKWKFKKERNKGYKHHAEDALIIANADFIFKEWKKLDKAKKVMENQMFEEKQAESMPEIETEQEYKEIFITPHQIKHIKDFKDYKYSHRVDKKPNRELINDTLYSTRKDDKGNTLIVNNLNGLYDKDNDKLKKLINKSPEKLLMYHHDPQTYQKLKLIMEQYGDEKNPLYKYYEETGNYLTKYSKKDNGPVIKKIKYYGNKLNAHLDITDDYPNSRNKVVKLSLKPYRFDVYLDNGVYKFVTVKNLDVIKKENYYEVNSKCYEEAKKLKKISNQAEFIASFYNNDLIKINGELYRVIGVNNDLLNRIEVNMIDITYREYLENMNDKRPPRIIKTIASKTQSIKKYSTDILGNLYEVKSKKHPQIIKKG
Protocol: (§1) HEK293 cells (10^5 cells/well) were seeded on a 24-well plate. 24 hours after inoculation, cells were transfected with 200 ng AAVS1-AS2 and 200 ng pST-Cas9 plasmid or 200 ng EMX1 and 200 ng pST-Cas9 plasmid in Opti-MEM medium. 6 hours after transfection, DMEM supplemented with 10% FBS and 10 μM drug (Compound 49) was used to replace Opti-MEM. The positive control for Cas9 activity was 200 ng AAVS1-AS2 and 200 ng pST-Cas9 plasmid or 200 ng EMX1 and 200 ng pST-Cas9 plasmid without drug. After the gene editing was completed, the cell genomic DNA was extracted, and the gene editing efficiency was tested by the T7E1 method (see Guschin, D. Y. et al. Methods Mol. Biol. 649, 247-256 (2010))).
The method of this example was similar to 2.1, except that pST-Cas9 was replaced with a plasmid containing SaCas9. The detection method was the same as in Example 2.

[3] = target: T2, SpyCas9 (Streptococcus pyogenes serotype M1, UniProt Q99ZW2); assay: Specificity of SpyCas9-based gene editing (targeted/off-target editing), T7E1 test; type: cell-based; settings: HEK293 cells
T2 construct: expressed in transfected cells; host or cells: HEK293
T2 sequence (Q99ZW2 whole entry): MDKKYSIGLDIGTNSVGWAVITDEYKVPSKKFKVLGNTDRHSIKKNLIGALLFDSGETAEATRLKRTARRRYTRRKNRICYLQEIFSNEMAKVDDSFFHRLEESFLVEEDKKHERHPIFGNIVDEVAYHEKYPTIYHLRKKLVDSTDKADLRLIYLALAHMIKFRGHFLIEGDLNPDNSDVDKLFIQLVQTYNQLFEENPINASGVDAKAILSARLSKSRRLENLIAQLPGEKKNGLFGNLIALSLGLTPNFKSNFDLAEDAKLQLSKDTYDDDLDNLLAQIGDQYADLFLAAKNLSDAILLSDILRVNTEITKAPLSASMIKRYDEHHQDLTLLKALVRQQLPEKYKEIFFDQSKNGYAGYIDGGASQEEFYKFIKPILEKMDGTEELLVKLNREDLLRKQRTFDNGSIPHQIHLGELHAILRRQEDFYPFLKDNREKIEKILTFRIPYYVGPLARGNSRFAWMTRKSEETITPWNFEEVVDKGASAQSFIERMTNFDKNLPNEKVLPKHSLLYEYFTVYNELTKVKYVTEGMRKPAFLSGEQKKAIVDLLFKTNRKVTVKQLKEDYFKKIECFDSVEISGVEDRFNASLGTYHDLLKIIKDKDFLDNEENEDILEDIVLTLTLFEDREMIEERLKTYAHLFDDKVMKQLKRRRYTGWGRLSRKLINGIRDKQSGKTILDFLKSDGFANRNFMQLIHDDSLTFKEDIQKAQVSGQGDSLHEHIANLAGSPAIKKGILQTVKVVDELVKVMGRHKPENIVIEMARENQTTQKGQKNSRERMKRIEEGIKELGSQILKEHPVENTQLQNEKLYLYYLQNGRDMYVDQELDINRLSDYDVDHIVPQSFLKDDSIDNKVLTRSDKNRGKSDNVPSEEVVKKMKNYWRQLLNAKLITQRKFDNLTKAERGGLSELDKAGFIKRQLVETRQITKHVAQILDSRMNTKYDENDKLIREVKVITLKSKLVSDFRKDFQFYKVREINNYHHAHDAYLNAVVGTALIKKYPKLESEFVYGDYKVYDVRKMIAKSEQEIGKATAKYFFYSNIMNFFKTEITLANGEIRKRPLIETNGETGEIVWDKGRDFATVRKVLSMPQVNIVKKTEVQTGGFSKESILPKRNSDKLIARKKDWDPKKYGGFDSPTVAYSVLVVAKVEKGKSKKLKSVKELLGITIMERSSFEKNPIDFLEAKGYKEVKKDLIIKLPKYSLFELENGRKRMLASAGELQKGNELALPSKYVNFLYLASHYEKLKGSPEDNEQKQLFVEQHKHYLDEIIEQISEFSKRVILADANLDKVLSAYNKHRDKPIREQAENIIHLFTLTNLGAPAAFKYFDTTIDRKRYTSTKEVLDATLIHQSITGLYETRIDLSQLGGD
Protocol: as §1
SpyCas9 was lipid transfected into HEK293 cells or nuclear transfected into K562 cells to determine the effect of compound 49 on the specificity of SpyCas9 in multiple cell lines on different genes. The inhibitor was added to the culture 6 hours after transfection. The detection method is the same as in Example 2.

[4] = target: T2, SpyCas9; assay: Inhibition of plasmid-expressed SpyCas9 editing of endogenous genes in HEK293 cells, T7E1 test; type: cell-based; settings: 10 μM compound
Protocol: as §1
The method of this example was the same as in Example 2.

[5] = target: CRISPR/Cas9 from Streptococcus pyogenes (SpyCas9) (Streptococcus pyogenes serotype M1, UniProt Q99ZW2); assay: cell-based;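 further: Cell-based reporter with a SpyCas9 target site placed in EGFP, where NHEJ repair of the cut restores the reading frame, read-out is the share of EGFP-positive cells, lowered by inhibitors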
Chain of CRISPR/Cas9 from Streptococcus pyogenes (SpyCas9) (Q99ZW2 whole entry): as above
Description: The CRISPR/Cas9 recognition site was inserted into the EGFP coding sequence so that the downstream sequence of the CRISPR/Cas9 recognition site was inside the box. The EGFP sequence was cleaved by Cas9 to produce double-strand breaks (DSBs), which would repair one of the two DNA repair mechanisms in the cell: non-homologous end joining (NHEJ) or homologous directed repair (HDR). The insertion or deletion introduced by NHEJ would restore the open reading frame of EGFP, thus activating EGFP fluorescence (FIG. 1).

[6] = tested on: base editing system; assay: Regulation of base editing in HEK293T cells, deep sequencing; type: cell-based

O=C(/C=C\n1cnc(-c2cc(C(F)(F)F)cc(C(F)(F)F)c2)n1)NNc1cnccn1 [Compound 49]
safety in clinical testing [1]: safe for humans
gene modification rate [2]: < 0.5%
ratio of the number of scheduled gene editing at specific sites to the number of scheduled gene editing at non-specific sites ([3]; after compound added, 2.4 when no compound was added): 7
raise of the specific/non-specific site editing ratio ([3]; with compound versus no compound): 2.9 fold
gene modification rate ([4]; HEK293 cells transfected with AAVS1-AS2 and pST-Cas9 plasmids, no-drug group 22.4% and 35.1%): < 1%
gene modification rate ([4]; HEK293 cells transfected with EMX1 and pST-Cas9 plasmids, no-drug group 26.5% and 27.9%): 5.6% and 3.8%
IC50 [5]: < 1000 nM
decrease rate of C→T conversion frequency ([6]; sg47, C on 5th site, 500 nM compound): 50%
C→T conversion frequency ([6]; sg47, C on 5th site, 500 nM compound, 18% without compound): 9%
indel frequency ([6]; sg48, 500 nM compound): reduced overall
C→T conversion inhibition efficiency ([6]; sgMSSK1-5, C on 5th site in the window, 500 nM compound): 30%
C→T conversion inhibition efficiency ([6]; sgMSSK1-5, C on 11th site out-of-window, 500 nM compound): 50%
